Experimental data as given in patent US12152017B2, “Ketoamide compound and preparation method, pharmaceutical composition, and use thereof” (Shanghai Institute of Materia Medica, Chinese Academy of …, priority 2018, dated 2024).

These compounds were tested on MERS-CoV pseudovirus (assay: microbe, parasite or virus in culture). Conditions: Middle East respiratory syndrome-related coronavirus, Huh-7, read-out: MERS-CoV pseudovirus inhibitory activity IC50.
Assay type: cell-based

| SMILES | IC50 |
| --- | --- |
| O=C(NCc1ccccc1)C(=O)[C@H](C[C@@H]1CCCNC1=O)NC(=O)[C@H](CC1CCCCC1)NC(=O)c1cc2ccccc2[nH]1 [Example A5] | 0.5 ± 0.2 nM |
| O=C(NC1CCCCC1)C(=O)[C@H](C[C@@H]1CCCNC1=O)NC(=O)[C@H](CC1CCCCC1)NC(=O)c1cc2ccccc2o1 [Example A15] | < 0.1 nM |
| O=C(NCc1ccccc1)C(=O)[C@H](C[C@@H]1CCCNC1=O)NC(=O)[C@H](CC1CCCCC1)NC(=O)c1cc2ccccc2s1 [Example A21] | 8.2 ± 3.2 nM |
| Cn1c(C(=O)N[C@@H](CC2CCCCC2)C(=O)N[C@@H](C[C@@H]2CCNC2=O)C(=O)C(=O)NC(C)(C)C)cc2ccccc21 [Example A25] | 407 ± 352 nM |
| Cn1c(C(=O)N[C@@H](CC2CCCCC2)C(=O)N[C@@H](C[C@@H]2CCNC2=O)C(=O)C(=O)NC2CCCCC2)cc2ccccc21 [Example A26, N—((S)-3-cyclohexyl-1-(((S)-4-(cyclohexylamino)-3,4-dione-1-((S)-2-oxopyrrolidine-3-yl)but-2-yl)amino)-3-cyclohexyl-1-oxopropan-2-yl)-1-methyl-1H-indole-2-carboxamide] | 7.8 ± 3.5 nM |
| Cn1c(C(=O)N[C@@H](CC2CCCCC2)C(=O)N[C@@H](C[C@@H]2CCCNC2=O)C(=O)C(=O)NCc2ccccc2)cc2ccccc21 [Example A27] | 8 ± 4 nM |
| CC(C)(C)NC(=O)C(=O)[C@H](C[C@@H]1CCNC1=O)NC(=O)[C@H](CC1CCCCC1)NC(=O)c1ccc2ccccc2n1 [Example A43] | 786 ± 458 nM |
| O=C(NC1CCCCC1)C(=O)[C@H](C[C@@H]1CCNC1=O)NC(=O)[C@H](CC1CCCCC1)NC(=O)c1ccc2ccccc2n1 [Example A44, N—((S)-3-cyclohexyl-1-(((S)-4-(cyclohexylamino)-3,4-dione-1-((S)-2-oxopyrrolidine-3-yl)but-2-yl)amino)-3-cyclohexyl-1-oxopropan-2-yl)-quinoline-2-carboxamide] | 18 ± 5.6 nM |
| O=C(NCc1ccccc1)C(=O)[C@H](C[C@@H]1CCCNC1=O)NC(=O)[C@H](Cc1ccccc1)NC(=O)c1cc2ccccc2[nH]1 [Example A51, N—((S)-1-(((S)-4-(benzylamino)-3,4-dione-1-((S)-2-oxopiperidine-3-yl)but-2-yl)amino)-1-oxo-3-phenylpropan-2-yl)-1H-indole-2-carboxamide] | < 0.1 nM |
| O=C(NCc1ccccc1)C(=O)[C@H](C[C@@H]1CCCNC1=O)NC(=O)[C@H](Cc1ccccc1)NC(=O)c1cnc2ccccc2n1 [Example A81, N—((S)-1-(((S)-4-(benzylamino)-3,4-dione-1-((S)-2-oxopiperidine-3-yl)but-2-yl)amino)-1-oxo-3-phenylpropan-2-yl)-quinoxaline-2-carboxamide] | 0.2 ± 0.1 nM |
| CC(C)NC(=O)CC[C@H](NC(=O)[C@H](CC1CCCCC1)NC(=O)c1cc2ccccc2[nH]1)C(=O)C(=O)NCc1ccccc1 [Example A232, N—((S)-1-(((S)-4-(benzyl)-3,4-dione-1-(isopropylamino)-2-yl)amino)-3-(cyclohexyl)-1-oxopropan-2-yl)-1H-indole-2-carboxamide] | 13.4 ± 3 nM |
| CC(C)NC(=O)CC[C@H](NC(=O)[C@H](CC1CCCCC1)NC(=O)c1cnc2ccccc2n1)C(=O)C(=O)NCc1ccccc1 [Example A236, N—((S)-1-(((S)-4-(benzyl)-3,4-dione-1-(isopropylamino)-2-yl)amino)-3-(cyclohexyl)-1-oxopropan-2-yl)-quinoxaline-2-carboxamide] | 16.6 ± 4 nM |
| O=C(NCc1ccccc1)C(=O)[C@H](C[C@@H]1CCCNC1=O)NC(=O)[C@H](CC1CCCCC1)NC(=O)c1cc2ccc(F)cc2[nH]1 [Example A240] | 15.9 ± 7 nM |
| O=C(NCc1ccccc1)C(=O)[C@H](C[C@@H]1CCCNC1=O)NC(=O)C(CC1CCCCC1)NC(=O)c1ccc2c(c1)OCO2 (stereo partly drawn) [Example A243] | 10.7 ± 0.8 nM |
| O=C(NCc1ccccc1)C(=O)[C@H](C[C@@H]1CCCNC1=O)NC(=O)C(CC1CCCCC1)NC(=O)c1nc2ccccc2[nH]1 (stereo partly drawn) [Example A244] | 12.6 ± 12.2 nM |
| COc1cccc2cc(C(=O)NC(CC3CCCCC3)C(=O)N[C@@H](C[C@@H]3CCCNC3=O)C(=O)C(=O)NCc3ccccc3)oc12 (stereo partly drawn) [Example A245] | 18.4 ± 8 nM |
| Cc1c(C(=O)NC(CC2CCCCC2)C(=O)N[C@@H](C[C@@H]2CCCNC2=O)C(=O)C(=O)NCc2ccccc2)oc2ccccc12 (stereo partly drawn) [Example A246] | 10.8 ± 10 nM |
| Cc1ccc2oc(C(=O)NC(CC3CCCCC3)C(=O)N[C@@H](C[C@@H]3CCCNC3=O)C(=O)C(=O)NCc3ccccc3)c(C)c2c1 (stereo partly drawn) [Example A247] | 1.7 ± 0.4 nM |
| COc1ccc(OC)c2oc(C(=O)NC(CC3CCCCC3)C(=O)N[C@@H](C[C@@H]3CCCNC3=O)C(=O)C(=O)NCc3ccccc3)cc12 (stereo partly drawn) [Example A248] | 8.4 ± 1.7 nM |
| O=C(NCc1ccccc1)C(=O)[C@H](C[C@@H]1CCCNC1=O)NC(=O)C(CC1CCCCC1)NC(=O)c1coc2ccccc12 (stereo partly drawn) [Example A249] | 0.6 ± 0.2 nM |
| O=C(NCc1ccccc1)C(=O)[C@H](C[C@@H]1CCCNC1=O)NC(=O)C(CC1CCCCC1)NC(=O)C1=Cc2cc(Cl)ccc2OC1 (stereo partly drawn) [Example A250] | 0.7 ± 0.1 nM |
